From patent US20020026053A1, “Novel 3-(substituted) -2- indolinones compounds and use thereof as inhibitors of protein kinase activity” (priority 1997, published 2002)

Key:
PDGF-R = PDGF-R Assay (cellular ELISA, U1242 cells); assay type: cell-based; design: concentration or dose not given beside the values; details: protocol P.119
How it was run: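 U1242 cells seeded in 0.5% serum, serum-starved, then exposed to compound for 2 hr at 37°C before 5–10 min ligand stimulation and lysis in HNTG. Lysate captured on receptor-antibody-coated plates; phosphotyrosine detected with polyclonal anti-pTyr, goat anti-rabbit IgG and ABTS/H2O2, A410 (ref 630 nm), versus untreated cells.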

EGFR = molecular target: T1, EGFR (Homo sapiens, UniProt P00533); assay: Biochemical EGFR Assay; design: concentration or dose not given beside the values; details: protocol P.167
T1 construct: endogenous in cells; host or cells: A431 cells (lysate, captured with SUMO1 anti-EGFR antibody)
T1 sequence (P00533 25-1210): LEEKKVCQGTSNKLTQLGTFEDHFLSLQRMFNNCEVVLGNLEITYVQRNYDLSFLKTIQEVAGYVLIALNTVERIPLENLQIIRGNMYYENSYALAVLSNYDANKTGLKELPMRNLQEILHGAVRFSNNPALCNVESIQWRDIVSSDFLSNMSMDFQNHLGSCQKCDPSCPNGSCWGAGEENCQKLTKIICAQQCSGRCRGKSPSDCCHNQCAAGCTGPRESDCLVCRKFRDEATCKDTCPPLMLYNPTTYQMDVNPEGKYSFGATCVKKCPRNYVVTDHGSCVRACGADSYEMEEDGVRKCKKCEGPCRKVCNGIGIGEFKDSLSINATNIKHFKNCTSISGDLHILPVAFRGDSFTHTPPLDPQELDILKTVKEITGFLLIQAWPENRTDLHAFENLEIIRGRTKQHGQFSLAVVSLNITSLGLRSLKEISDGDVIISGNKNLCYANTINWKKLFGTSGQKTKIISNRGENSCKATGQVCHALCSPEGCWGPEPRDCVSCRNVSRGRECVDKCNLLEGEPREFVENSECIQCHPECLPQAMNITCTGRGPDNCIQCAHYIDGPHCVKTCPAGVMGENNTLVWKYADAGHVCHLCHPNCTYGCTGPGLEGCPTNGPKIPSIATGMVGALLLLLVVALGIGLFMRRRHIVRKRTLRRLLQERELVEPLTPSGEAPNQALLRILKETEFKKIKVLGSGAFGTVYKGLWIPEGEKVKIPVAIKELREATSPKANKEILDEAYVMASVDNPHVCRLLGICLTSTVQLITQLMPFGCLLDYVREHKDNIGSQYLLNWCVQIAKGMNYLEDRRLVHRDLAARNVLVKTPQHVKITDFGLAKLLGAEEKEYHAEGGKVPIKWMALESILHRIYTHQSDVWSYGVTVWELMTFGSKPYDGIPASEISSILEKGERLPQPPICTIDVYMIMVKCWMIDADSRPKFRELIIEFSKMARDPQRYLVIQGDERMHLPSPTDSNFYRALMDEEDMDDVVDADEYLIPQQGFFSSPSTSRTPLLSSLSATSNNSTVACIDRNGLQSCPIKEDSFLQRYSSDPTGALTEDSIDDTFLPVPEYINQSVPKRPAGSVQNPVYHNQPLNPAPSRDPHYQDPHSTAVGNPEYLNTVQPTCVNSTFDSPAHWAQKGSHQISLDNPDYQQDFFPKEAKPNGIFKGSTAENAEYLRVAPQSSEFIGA
How it was run: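 EGFR from A431 lysate was captured on anti-EGFR-coated wells and preincubated 30 min with compound (diluted 1:10 in TBS) at room temperature. After ATP/MnCl2 phosphorylation for 5 min, the reaction was stopped with EDTA. Phosphotyrosine was detected by ELISA (anti-phosphotyrosine, peroxidase conjugate, ABTS) at 410 nm.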

Row | Structure (SMILES) | PDGF Kinase % Inhibition (P.119) (PDGF-R) [%] | Biochem EGFR % Inhibition (P.167) (EGFR) [%]
1 | O=C1Nc2ccc(S(=O)(=O)N3CCOCC3)cc2C1=Cc1cc(O)c(O)c(O)c1 [10739/F07] | 23.7 | 62.4
2 | COc1ccc(Oc2cccc(C=C3C(=O)Nc4ccc(S(=O)(=O)N5CCOCC5)cc43)c2)cc1 [10739/F08] | 9.1 | −19.1
3 | CN(C)CCCOc1ccc(C=C2C(=O)Nc3ccc(S(=O)(=O)N4CCOCC4)cc32)cc1 [10739/F09] | 3.3 | −19.6
4 | O=C1Nc2ccc(S(=O)(=O)N3CCOCC3)cc2C1=Cc1ccoc1 [10739/F10] | 4.2 | −16.8
5 | O=C1Nc2ccc(S(=O)(=O)N3CCOCC3)cc2C1=Cc1ccc(CO)o1 [10739/F11] | 0.8 | −38.5
6 | COc1ccc(C=C2C(=O)Nc3ccc(CCCl)cc32)cc1C [10739/G02] | −12.2 | −5.1
7 | O=C1Nc2ccc(CCCl)cc2C1=Cc1cccc(OCc2ccccc2)c1 [10739/G03] | −6.9 | 2.4
8 | O=C1Nc2ccc(CCCl)cc2C1=Cc1ccc(OCc2ccccc2)cc1 [10739/G04] | −3.5 | −12.3
9 | O=C1Nc2ccc(CCCl)cc2C1=CC1COc2ccccc2O1 (centres unmarked) [10739/G05] | −5.9 | −23.0
10 | O=C1Nc2ccc(CCCl)cc2C1=Cc1ccc(O)cc1Cl [10739/G06] | −6.4 | −31.2
11 | O=C1Nc2ccc(CCCl)cc2C1=Cc1cc(O)c(O)c(O)c1 [10739/G07] | 10.1 | 10.0
12 | COc1ccc(Oc2cccc(C=C3C(=O)Nc4ccc(CCCl)cc43)c2)cc1 [10739/G08] | 1.3 | −18.5
13 | CN(C)CCCOc1ccc(C=C2C(=O)Nc3ccc(CCCl)cc32)cc1 [10739/G09] | 13.9 | −39.8
14 | O=C1Nc2ccc(CCCl)cc2C1=Cc1ccoc1 [10739/G10] | −0.6 | −38.1
15 | O=C1Nc2ccc(CCCl)cc2C1=Cc1ccc(CO)o1 [10739/G11] | 7.6 | −23.2
16 | COc1ccc(C=C2C(=O)Nc3c(Br)cc(Br)c(C)c32)cc1C [10739/H02] | −18.6 | −12.3
17 | Cc1c(Br)cc(Br)c2c1C(=Cc1cccc(OCc3ccccc3)c1)C(=O)N2 [10739/H03] | −19.5 | 10.0
18 | Cc1c(Br)cc(Br)c2c1C(=Cc1ccc(OCc3ccccc3)cc1)C(=O)N2 [10739/H04] | −14.2 | −21.9
19 | Cc1c(Br)cc(Br)c2c1C(=Cc1ccc(O)cc1Cl)C(=O)N2 [10739/H06] | −17.1 | −22.1
20 | Cc1c(Br)cc(Br)c2c1C(=Cc1cc(O)c(O)c(O)c1)C(=O)N2 [10739/H07] | 14.9 | 10.9
21 | COc1ccc(Oc2cccc(C=C3C(=O)Nc4c(Br)cc(Br)c(C)c43)c2)cc1 [10739/H08] | −3.5 | −28.5
22 | Cc1c(Br)cc(Br)c2c1C(=Cc1ccoc1)C(=O)N2 [10739/H10] | −13.2 | −26.6
